Values of other authors in patent US10940187B2, “Method of treatment of schizophreniform disorder” (Curemark, LLC, priority 2011, dated 2021).
Where two headings read alike, the source gives them in different places.

Legend:
[1] = test system: ckr mice; conditions: for spontaneous hyperactivity of ckr mice: dose dependent effects
[2] = test system: control mice; conditions: monitored during the dark cycle

Cc1nc2n(c(=O)c1CCN1CCC(c3noc4cc(F)ccc34)CC1)CCCC2 [risperidone]
spontaneous hyperactivity of ckr mice [1]: dose-dependently suppressed

O=C(CCCN1CCC(O)(c2ccc(Cl)cc2)CC1)c1ccc(F)cc1 [haloperidol]
spontaneous hyperactivity of ckr mice [1]: dose-dependently suppressed | locomotor activity of control mice [2]: did not produce a significant suppression

O=C1Cc2cc(CCN3CCN(c4nsc5ccccc45)CC3)c(Cl)cc2N1 [ziprasidone]
spontaneous hyperactivity of ckr mice [1]: dose-dependently suppressed

O=C1CCc2ccc(OCCCCN3CCN(c4cccc(Cl)c4Cl)CC3)cc2N1 [aripiprazole]
locomotor activity, post-hoc Dunnett's test vs vehicle control ([1]; 15 mg/kg): did not significantly suppress | motor activity ([1]; 15 mg/kg): increase in motor activity | locomotor activity, post-hoc Dunnett's test vs vehicle control ([1]; 30 mg/kg): significantly suppressed | motor activity ([1]; 30 mg/kg): suppression of motor activity | overall suppression of motor function (observational) ([1]; 30 mg/kg): severe sedation | locomotor activity of ckr mice ([1]; across doses, F6,54_4.626, P_0.001): dose-dependently reduced | ED50 for initial suppression of locomotor activity ([1]; curve fitted to subset of data, doses 1.67 to 10 mg/kg, fit failed to correlate with observed values): 2.695 mg/kg | spontaneous hyperactivity of ckr mice [1]: dose-dependently suppressed | locomotor activity, post-hoc Dunnett's test vs vehicle control ([1]; doses of 3-10 mg/kg): significantly reduced | motor activity ([1]; lower doses 1.67-10 mg/kg): dose-dependent reduction | shape of dose-response on hyperactivity ([1]; suppression at low doses, little effect at intermediate doses, suppression at high doses): tri-phasic dose-response

OCCOCCN1CCN(C2=Nc3ccccc3Sc3ccccc32)CC1 [quetiapine]
spontaneous hyperactivity of ckr mice [1]: dose-dependently suppressed
